Consider one compound from patent publication US4629627A, “Antiviral substance and the manufacturing method thereof” (priority 1978, dated 1986).

The test system of series [1] is liver cancer in rats. Briefly: Experiment 3: depression of liver cancer induced by 3'-Me-DAB in rats. Format: in vivo, Wister male rats. From the text:
The present inventor asked Prof. Nobuhiko Kanno, Biological Laboratory, Dept. of Pharmacology, Toyama Medical and Pharmacologival University, to test the activity of the present antiviral substance to depress the liver cancer in rats on pathogens of viruses.
1. Test animals: Wister male rats of 4 weeks of age were fed for 5 days as usual and tested.
2. Carcinogenic substance: 3'-methyl-4-dimethyl amino azobenzene (3'-Me-DAB) [drawing 1]
(1) Control group: standard food
(2) L group: standard food+L
(3) L+DAB group 0.06% 3'-Me-DAB containing food+L
(4) DAB group 0.06% 3'-Me-DAB containing food
Note: L: a frozen dry powder of the extract of the nutrient medium and tissue-medium of Lentinus edodes DAB: 3'-Me-DAB
4. Quantity and the method of giving the freeze-dried powder of the extract of the nutrient medium and tissue-medium of Lentinus edodes […]
The freeze-dried powder of the nutrient medium and tissue-medium of Lentinus edodes was dissolved in physiological salt water, and given intraperitoneally; the same dose of physiological salt water was similarly given to the control group.

Series [2] deals with liver cancer in rats. To be noted: rat's liver; cited from earlier work.

With `Cc1cccc(N=Nc2ccc(N(C)C)cc2)c1` [3'-Me-DAB, 3'-methyl-4-dimethyl amino azobenzene], the “liver finding at autopsy” value in the series on liver cancer in rats [1] (dissection, after 14 and 18 weeks) is given as “fine yellowish white particles which seemed to be cancerous tissue were seen all over the liver”. Moreover, the “microscopic findings of the liver tissue” value in the series on liver cancer in rats [1] (hematoxin-eosin) is “severe disarrangement of cells and the glandular structure specific to liver cancer (adeno carcinoma)”. Moreover, the depilation entry in the series with liver cancer in rats [1] (microscopic observation, within about 5 and 15 weeks) is listed as “depilation appeared on the abdomen in some a rats”. For the same compound, the carcinogenic property entry in the series on liver cancer in rats [2] was “specific and strong carcinogenic property”.
